Experimental data reported in PubChem BioAssay (NCI).
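Exposure lasted 48 hours, with cells grown in 96-well plates and compounds tested at five concentrations. TGI denotes the concentration required for complete inhibition of growth.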

Key:
Assay in all cases: inhibition of tumour cell growth, NCI panel, 48 h
A549 NSCLC = system: A549 NSCLC
BT-549 breast = system: BT-549 breast
MDA-MB-435 = system: MDA-MB-435
MOLT-4 leukemia = system: MOLT-4 leukemia
NCI-H226 lung = system: NCI-H226 lung
OVCAR-5 ovarian = system: OVCAR-5 ovarian
OVCAR-8 ovarian = system: OVCAR-8 ovarian
PC-3 prostate = system: PC-3 prostate
RPMI-8226 leukemia = system: RPMI-8226 leukemia
SF-539 CNS = system: SF-539 CNS

SMILES | TGI (A549 NSCLC) [µM] | TGI (BT-549 breast) [µM] | TGI (MDA-MB-435) [µM] | TGI (MOLT-4 leukemia) [µM] | TGI (NCI-H226 lung) [µM] | TGI (OVCAR-5 ovarian) [µM] | TGI (OVCAR-8 ovarian) [µM] | TGI (PC-3 prostate) [µM] | TGI (RPMI-8226 leukemia) [µM] | TGI (SF-539 CNS) [µM]
Cc1cc(S(=O)(=O)/N=C(/NN)Nc2ccc(Cl)cc2)c(S)cc1Cl | 23.8 | 34.6 | 25.6 | 58.9 | 43.3 | 12.9 | 27.3 | > 100 | > 100 | 42.6
Cc1ccc(S(=O)(=O)NC(=O)C2=C3SCCN3C(=O)N(S(=O)(=O)c3ccc(C)cc3)C2c2ccccc2)cc1 (stereo not given) | > 100 | > 100 | 61 | > 100 | > 100 | > 100 | > 100 | > 100 | 92.3 | 61.6
CC1CCC2(OC1)OC1C(O)C3C4CCC5CC(OC6OC(CO)C(OC7OC(CO)C(O)C(OC8OCC(O)C(O)C8O)C7OC7OC(CO)C(O)C(OC8OC(CO)C(O)C(O)C8O)C7O)C(O)C6O)C(O)CC5(C)C4CCC3(C)C1C2C (stereo not given) | 4.32 | 3.19 | 30 | 15.1 | 3.33 | 4.12 | 4.21 | 10.3 | 9.28 | 10.9
Cc1cc(-c2nc3cccc(O)c3s2)ccc1N | 41.4 | 54.7 | 41.9 | 78.4 | > 100 | – | 99 | 98.5 | > 100 | > 100
Cc1ncc(COP(=O)(O)O)c(/C=C2\SC(=S)NC2=O)c1O | > 100 | > 100 | > 100 | > 100 | > 100 | > 100 | > 100 | > 100 | > 100 | > 100
CCOC(=O)c1cc(Br)c(-c2onc(C)c2Br)[nH]1 | > 100 | > 100 | > 100 | > 100 | > 100 | > 100 | 82.6 | > 100 | > 100 | > 100
Cc1c2cccc-2ccc2c3ccccc3n(C(=O)c3ccc(Cl)cc3)c12 | > 100 | > 100 | > 100 | > 100 | > 100 | > 100 | > 100 | > 100 | > 100 | > 100
O=C1NC(N2CCOCC2)=N/C1=C\c1ccc(O)cc1 | > 100 | > 100 | > 100 | > 100 | > 100 | > 100 | > 100 | > 100 | > 100 | > 100
CCSC1=CC2(O)N(CCc3ccc(OC)c(OC)c3)C(=O)CC2(C(=O)OC)CC1=O (stereo not given) | > 100 | 32.8 | 46 | 90.8 | > 100 | > 100 | 31 | 35.5 | 91.3 | 78.7
CCOc1cc2c(cc1O)C(O)C[C@@H]1[C@@H]2CC[C@]2(C)[C@@H](O)CC[C@@H]12 (stereo not given in full) | > 100 | > 100 | > 100 | > 100 | > 100 | > 100 | > 50.4 | > 100 | > 34 | 3.6
CC1(C)CC[C@]2(C(=O)O)CC[C@]3(C)[C@H](C(=O)C=C4[C@@]5(C)C=C(C#N)C(=O)C(C)(C)[C@@H]5CC[C@]43C)[C@@H]2C1 | 5.86 | 4.11 | 3 | 13.9 | 4.02 | 2.12 | 2.42 | 1.97 | 1.19 | 4.05
COc1cccc(C2c3cc4c(cc3OC(Nc3ccccc3)C2C)OCO4)c1O (stereo not given) | 23.6 | 38.8 | 5.66 | 16 | 33.2 | > 93.8 | 35.7 | 36.9 | 43.8 | 18.1
CCCCCCCCOc1ccc(/C=C/C2=[N+](CCO)CCO2)cc1 | 10.7 | 14.5 | 14.5 | 9.27 | 12.3 | 26.4 | 12.3 | 10.3 | 5.02 | 11
O=[Se](O)O | > 100 | 39 | > 100 | > 100 | 2.48 | 4.82 | 8.83 | 7.63 | > 100 | 2.56
C=C1CC(C)(c2cccc(Nc3nc4ccccc4c4occc34)c2)OC1=O (stereo not given) | 46.3 | 17.4 | 21.8 | > 100 | 4.54 | 31.7 | 21.3 | 21.9 | 4.62 | 3.47
Cn1c(=O)sc2cc(C(=S)N3CCCCC3)ccc21 | – | > 100 | > 100 | > 100 | > 100 | > 100 | > 100 | > 100 | > 100 | > 100
CC(C)CCOC(=O)NC(Nc1ccc(F)cc1)(C(F)(F)F)C(F)(F)F | > 100 | > 100 | > 100 | 76.8 | > 100 | > 100 | > 100 | > 100 | > 100 | 46.1
COc1ccccc1NC(=O)CC(=O)NN | > 100 | > 100 | > 100 | > 100 | > 100 | > 100 | > 100 | > 100 | > 100 | > 100

SMILES | TGI (A549 NSCLC) [µM] | TGI (BT-549 breast) [µM] | TGI (MDA-MB-435) [µM] | TGI (MOLT-4 leukemia) [µM] | TGI (NCI-H226 lung) [µM] | TGI (OVCAR-5 ovarian) [µM] | TGI (OVCAR-8 ovarian) [µM] | TGI (PC-3 prostate) [µM] | TGI (RPMI-8226 leukemia) [µM] | TGI (SF-539 CNS) [µM]
Oc1ccc(-c2nc3ccccc3s2)cc1 | > 100 | > 100 | > 100 | > 100 | > 100 | > 100 | > 100 | > 100 | > 100 | > 100
O=c1c2nc(-c3ccccc3)oc2n(-c2ccccc2)c(=O)n1-c1ccccc1 | > 46.4 | > 46.4 | > 46.4 | > 46.4 | 44.1 | > 46.4 | 44.6 | > 46.4 | > 46.4 | 35.8
CCOC(=O)CCC(C(=O)OCC)n1nnc2cc(Nc3c(C)[n+]([O-])c4cc(F)c(OCC)cc4[n+]3[O-])ccc21 (stereo not given) | > 100 | > 100 | > 100 | > 100 | > 100 | > 100 | > 100 | > 100 | > 100 | > 100
CC(C)=CCC[C@@H](C)C1=C(O)C(Nc2ccccc2I)=C(C)C(=O)C1=O | > 50.6 | > 75 | > 75 | > 19.5 | 18.4 | > 75 | > 32.2 | > 51.8 | > 36.8 | 30
COC(=O)Cn1cnc2c(Cl)nc(Nc3ccccc3)nc21 | > 100 | > 100 | 79.8 | 84.7 | > 100 | – | 66.7 | > 100 | > 100 | > 100
O=C(Nc1nn[nH]n1)c1nc(-c2ccccc2)cc(=O)[nH]1 | > 100 | > 100 | > 100 | > 100 | > 100 | > 100 | > 100 | > 100 | > 100 | > 100
CCOC(=O)Nc1ccc(S(=O)(=O)Nn2cnnc2)cc1 | > 100 | > 100 | 49.7 | > 100 | – | > 100 | > 100 | > 100 | 94.3 | 65.1
Cc1nc(Nc2ccccc2Cl)sc1C(=O)CC(=O)C(N)=O | > 100 | > 100 | > 100 | > 100 | > 100 | > 100 | > 100 | > 100 | > 100 | > 100
COC(=O)Nc1nc2ccc(NC(=O)c3ccc(I)cc3)cc2[nH]1 | > 100 | > 100 | > 100 | > 100 | > 100 | > 100 | > 100 | > 100 | > 100 | > 100
CCN(CC)C(=O)CCN1CC1 | > 10 | > 10 | > 10 | > 10 | > 10 | > 10 | > 10 | > 10 | > 10 | > 10
COC(NC(=O)Nc1ccccc1C)(C(F)(F)F)C(F)(F)F | > 100 | > 100 | > 100 | > 100 | > 100 | > 100 | > 100 | > 100 | > 100 | > 100
COC1=CC(=O)N(C)C(O)C1(C#N)OC1OC(CO)C(O)C(O)C1O (stereo not given) | > 100 | > 100 | > 100 | > 100 | > 100 | > 100 | > 100 | > 100 | > 100 | > 100
C#CCOC(=O)c1ccc(OC(C)=O)cc1 | – | > 100 | > 100 | > 100 | > 100 | > 100 | > 100 | > 100 | > 100 | > 100
O=C1/C(=C/c2cccc3ccccc23)CCc2ccc([N+](=O)[O-])cc21 | > 100 | 45.5 | 22.6 | > 100 | > 100 | > 100 | > 100 | > 100 | > 100 | 73.5
CCOC1=C(c2ccccc2)N2CCCCC2O1 (stereo not given) | > 100 | 26.3 | 16.8 | > 73 | 32.5 | > 59.2 | > 38.5 | 22.3 | > 24 | 34.8
NC(=O)CN1C=CCC(C(N)=O)=C1 | > 100 | > 100 | > 100 | > 100 | > 100 | > 100 | > 100 | > 100 | > 100 | > 100
NCCSCCC(=O)O | > 100 | > 100 | > 100 | > 100 | > 100 | > 100 | > 100 | > 100 | > 92.3 | > 100
CC1=CCC[C@H]2[C@](C)(CC3=CC(=O)C(SCC(C)C)=CC3=O)[C@@H](C)CC[C@]12C | 29.9 | 35.8 | 32.5 | 6.19 | 28.9 | 40.9 | 26.1 | 30.9 | 14.3 | 33.2
